Test results: patent US8163746B2, “Azolecarboxamide derivative” (Astellas Pharma Inc., priority 2006, dated 2012)

Columns and labels:
[1] = target: T1, Human nerve growth factor receptor (Homo sapiens, UniProt P04629); assay: Receptor inhibitory activity using cells expressing a nerve growth factor receptor (NGF-dependent intracellular Ca increase, FLIPR); format: cell-based; conditions: HEK293 cells stably expressing Human nerve growth factor receptor; NGF about 100 to 150 ng/ml; Ca concentration change
T1 construct: expressed in transfected cells
T1 sequence (P04629 33-796): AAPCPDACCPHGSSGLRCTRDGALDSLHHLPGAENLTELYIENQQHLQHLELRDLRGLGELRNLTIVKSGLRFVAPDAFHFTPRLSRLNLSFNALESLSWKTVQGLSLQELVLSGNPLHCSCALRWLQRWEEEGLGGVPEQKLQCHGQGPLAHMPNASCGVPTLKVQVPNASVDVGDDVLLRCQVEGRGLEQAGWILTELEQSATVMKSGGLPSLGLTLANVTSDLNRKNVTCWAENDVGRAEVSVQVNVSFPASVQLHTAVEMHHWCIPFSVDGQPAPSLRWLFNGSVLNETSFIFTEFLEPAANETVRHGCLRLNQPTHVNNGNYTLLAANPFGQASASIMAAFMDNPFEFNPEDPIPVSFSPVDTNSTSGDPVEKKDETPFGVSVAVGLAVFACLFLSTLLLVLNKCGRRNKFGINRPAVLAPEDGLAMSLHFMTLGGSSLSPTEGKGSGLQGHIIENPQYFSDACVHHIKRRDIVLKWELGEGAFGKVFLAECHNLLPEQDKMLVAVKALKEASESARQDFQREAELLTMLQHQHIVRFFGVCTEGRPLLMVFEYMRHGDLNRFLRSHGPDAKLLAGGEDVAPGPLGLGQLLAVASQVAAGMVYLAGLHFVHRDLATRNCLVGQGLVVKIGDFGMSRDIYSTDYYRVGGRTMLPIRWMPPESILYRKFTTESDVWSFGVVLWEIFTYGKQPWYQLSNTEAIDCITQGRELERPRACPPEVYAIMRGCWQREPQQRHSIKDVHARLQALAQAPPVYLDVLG
Description: 1. Experiment to Measure a Receptor Inhibitory Activity Using Cells Expressing a Nerve Growth Factor Receptor
The nerve growth factor receptor inhibitory activity was measured by using the increase in a ligand-dependent calcium concentration in cells as an index. HEK293 cells (American Type Culture Collection) that stably expressed Human nerve growth factor receptor were dispensed onto a 96-well poly-D-lysine-coated plate (Product Name: Biocoat, PDL96W black/clear, by Nippon Becton Dickinson) to a 2×10^4 cells/well at the day before the experiment, and incubated overnight at 37° C. under 5% carbon dioxide (CO2) in a culture medium containing 10% fetal bovine serum (FBS) (Product Name: DMEM, Invitrogen Corporation). The culture medium was replaced by a washing solution: a Hank's balanced salt solution)(HBSS), containing a 1.5 μM loading buffer (fluorescent indicator (Product Name: Fluo-4-AM, […].)), 20 mM 2-[4-(2-hydroxyethyl)-1-piperazinyl]ethanesulfonic acid (HEPES)-sodium hydroxide (NaOH), 2.5 mM Probenecid, 0.1% bovine serum albumin (BSA), and left to stand at room temperature for 3 hours, and the cells were washed using a plate washer (Product Name: ELx405, BIO-TEK instrument Corporation) in which a washing solution had been set up. The compound that had been preliminarily dissolved and diluted in a washing solution was added thereto, and set up in a system for measuring a calcium (Ca) concentration in a cell (Product Name: FLIPR, Molecular Devices Corporation). After 5 minutes, a nerve growth factor (NGF, mouse derived 2.5S, Alomone) corresponding on 80% stimulation of a maximum response was added (to a final concentration of about 100 to 150 ng/ml) to measure the change in Ca concentrations in cells. A difference between a maximum value and a minimum value in Ca concentrations in cells was determined, and kept as measurement data. With a response upon addition of NGF being set at 0%, and a response upon addition of a buffer being set at 100%, the concentration causing 50% inhibition was determined as an IC50 value. In the table, Ex represents Compound No. of Examples as described later. From the results of this test, it was confirmed that the compound of the present invention has a nerve growth factor receptor inhibitory activity.

trkA receptor = target: T2, trkA receptor (Rattus norvegicus, UniProt P35739); assay: Inhibitory activity on enhanced vascular permeability caused by NGF in rat (Evans blue); format: in vivo; conditions: Wistar female rat, 10 mg/kg oral, NGF intracutaneous 60 min after administration, vehicle group set at 100%
T2 construct: from tissue; host or cells: Wistar female rat (SLC), skin of the back, in vivo
T2 sequence (P35739 33-799): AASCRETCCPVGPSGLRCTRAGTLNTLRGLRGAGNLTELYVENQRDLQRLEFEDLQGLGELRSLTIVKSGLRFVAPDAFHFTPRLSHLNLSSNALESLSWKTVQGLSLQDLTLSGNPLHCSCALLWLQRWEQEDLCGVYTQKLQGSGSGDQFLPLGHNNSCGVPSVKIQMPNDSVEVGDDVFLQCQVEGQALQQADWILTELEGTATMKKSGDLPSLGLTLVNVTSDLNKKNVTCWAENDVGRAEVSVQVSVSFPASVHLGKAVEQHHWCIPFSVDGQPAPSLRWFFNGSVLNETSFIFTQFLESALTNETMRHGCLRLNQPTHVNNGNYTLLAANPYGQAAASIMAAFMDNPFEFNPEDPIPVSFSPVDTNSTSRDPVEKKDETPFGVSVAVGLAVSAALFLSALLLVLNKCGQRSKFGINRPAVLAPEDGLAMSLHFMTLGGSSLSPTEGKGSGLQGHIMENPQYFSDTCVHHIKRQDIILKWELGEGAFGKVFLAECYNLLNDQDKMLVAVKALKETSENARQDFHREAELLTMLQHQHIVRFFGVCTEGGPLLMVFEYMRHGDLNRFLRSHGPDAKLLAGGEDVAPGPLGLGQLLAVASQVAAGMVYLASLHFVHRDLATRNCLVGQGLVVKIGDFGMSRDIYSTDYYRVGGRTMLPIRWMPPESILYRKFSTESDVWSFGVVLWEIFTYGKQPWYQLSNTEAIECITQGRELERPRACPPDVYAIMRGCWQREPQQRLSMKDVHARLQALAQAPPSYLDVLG
Description: 2. Evaluation of the Inhibitory Activity of the Compound on Enhanced Vascular Permeability Caused by NGF in Rat
The in vivo trkA receptor inhibitory activity of the compound was examined. A Wistar female rat (SLC) were forced to be orally administered with the compound (0.5% methylcellulose solution) 10 mg/3 ml/kg or a vehicle (0.5% methylcellulose solution) 3 ml/kg. Under ether anesthesia performed at 60 min after administration, physiological saline or 1 ug/ml NGF (NGF, mouse derived 2.5S, Alomone) was intracutaneously administered to the back at 50 ul/site, and then immediately a 1% Evans blue solution (dissolved in physiological saline) was administered through caudal vein at 3 ml/kg. At a time point of 10 min after the administration, the skin on the back was taken, and shaken in formamide for 16 hours. After shaking, an absorption of Evans blue extracted with formamide was measured by an absorption meter (wavelength: 620 nm), and the concentration was determined by a calibration curve method. A value obtained by subtracting the concentration of Evans blue at a site administered with physiological saline from the concentration of Evans blue at a site administered with NGF has a function dependent on NGF, and an inhibitory rate of the compound group was determined with a group administered with vehicle being set at 100%. In this test, it was confirmed that the compound of the present invention has an excellent inhibitory activity on enhanced vascular permeability caused by NGF in rat.

[2] = system: CPA-induced urinary frequency in rat; assay: Effects on cyclophosphamide (CPA)-induced urinary frequency in rat; format: in vivo; conditions: Wistar female rat, 2 days after CPA, value before administration = 100%
Description: 3. Effects of the Compound on the Cyclophosphamide (CPA)-Induced Urinary Frequency in Rat
CPA (150 mg/5 ml/kg) was intraperitoneally administered to a Wistar female rat (Charles river laboratories), and after two days, the experiment was carried out. It was forced to be orally administered with distilled water (30 ml/kg), and then placed in a metabolic cage, and the voided urine weight and the urination frequency were continuously measured for 1 hour. The compound (0.5% methylcellulose solution) 3 or 10 mg/5 ml/kg, or a vehicle (0.5% methylcellulose solution) 5 ml/kg was orally administered, and after 5 to 30 min, the urinary functions were measured after loading water in the same manner as described above. A total voided urine weight was divided by the total urination frequency to determine an effective bladder capacity. With the value before administration of the compound being set at 100%, a rate of change in the effective bladder capacity caused by administration of the compound was determined.
In this test, at 2 days after CPA treatment, the effective bladder capacity was decreased (about 0.5 ml), indicating urinary frequency condition.

[3] = system: acetic acid-induced painful behaviors in rat; assay: Effects on acetic acid-induced painful behaviors (writhing) in rat; format: in vivo; conditions: Wistar male rat; 10 mg/kg oral 5 min before 1% acetic acid i.p.; writhing frequency 10-20 min; vehicle group = 100%
Description: 4. Effects of the Compound on Acetic Acid-Induced Painful Behaviors in Rat
1% Acetic acid (99% distilled water) was intraperitoneally administered to a Wistar male rat (Charles river laboratories), and the frequency of pain behavior (writhing) between 10 min and 20 min after administration was measured. The compound (10 mg/5 ml/kg) or a vehicle (0.5% methylcellulose solution) was orally administered 5 mins before the administration of 1% acetic acid. With the frequency of the group administered with the vehicle being set at 100%, the inhibition rate of the writhing behavior frequency by the compound administration was determined.

[4] = dose 10 mg/kg oral, evaluation 30-90 min after administration
[5] = dose 3 mg/kg oral, evaluation 5-65 min after administration

Row | IC50 [1] | Inhibition rate (trkA receptor) | SMILES | Change rate of effective bladder capacity [2, 4] | Inhibition rate [3] | Change rate of effective bladder capacity [2, 5]
1 | 11 nM | 93% | NC(=O)CN1CCN(c2ccccc2NC(=O)c2csc(N3CCOCC3)n2)CC1 [Example 151] | 147% | 53% | 
2 | 8.8 nM | 97% | COCCN(C)c1nc(C(=O)Nc2ccccc2N2CCN(CC(N)=O)CC2)cs1.Cl [Example 356, N-{2-[4-(2-amino-2-oxoethyl)-piperazin-1-yl]phenyl}-2-[(2-methoxyethyl)(methyl)amino]-1,3-thiazole-4-carboxamide hydrochloride] | 180% |  | 
3 | 11 nM | 92% | COCCN(C)c1nc(C(=O)Nc2cccnc2N2CCN(CC(N)=O)CC2)cs1 [Example 382] |  | 38% | 134%
4 | 4.6 nM | 95% | NC(=O)CN1CCN(c2ccc(F)cc2NC(=O)c2coc(C3CCOCC3)n2)CC1 [Example 942] |  |  | 153%
5 | 2.4 nM |  | NC(=O)C1CCN(c2ccccc2NC(=O)c2csc(-c3ccoc3)n2)CC1 [Example 662, 1-[2-({[2-(3-furyl)-1,3-thiazol-4-yl]carbonyl}amino)phenyl]-4-piperidine carboxamide] |  |  | 
6 | 2.6 nM | 90% | NC(=O)CN1CCN(c2c(F)cccc2NC(=O)c2csc(N3CCC(O)CC3)n2)CC1 [Example 311] |  |  | 
7 | 9.5 nM | 88% | COCCN(C)c1nc(C(=O)Nc2cccnc2N2CCC(C(N)=O)CC2)cs1 [Example 380] | 152% | 44% | 
8 | 12 nM | 85% | Cl.NC(=O)C1CCN(c2ncccc2NC(=O)c2coc(N3CCOCC3)n2)CC1 [Example 501, 1-(3-{[(2-morpholin-4-yl-1,3-oxazol-4-yl)carbonyl]amino}pyridin-2-yl)piperidine-4-carboxamide hydrochloride] | 157% | 55% | 
